The subject of one series is Zone of skin. Kind of series: Drug level in mouse skin. The format is ADME, tissue-based. To be noted: in vitro.
Series [1] in a line: Stability in aqueous buffer assessed as hydrolysis half life. The format is physicochemical.
Series [2] in a line: Dissociation constant, pKa of the compound. The format is physicochemical.
A short description of series [3]: Solubility in isopropyl myristate. The format is physicochemical.
A short description of series [4]: Partition coefficient, log K between isopropyl myristate and pH 4.0 buffer. The format is ADME. To be noted: isopropyl myristate/pH 4.0 buffer.
Series [5] in a line: Permeability across hairless mouse skin from isopropyl myristate. The format is ADME, tissue-based, Zone of skin. To be noted: read-out: permeability (converted).

Converted amounts (≈) assume the structure as drawn.

Consider `COc1ccc2cc([C@H](C)C(=O)O)ccc2c1` [NAPROXEN], for which the Drug uptake with Zone of skin is 2.71 µmol.
In general, half-life refers to the time needed for the level to fall by half in the phase considered. In general, pKa refers to the negative logarithm of the acid dissociation constant. As for `COC(=O)N(C)COC(=O)Cc1c(C)n(C(=O)c2ccc(Cl)cc2)c2ccc(OC)cc12`, the half-life in series [1] is 3.65 min. The compound also returned a pKa in series [2] of 4.5.
As to `CCOC(=O)c1ccc(N(COC(=O)[C@@H](C)c2ccc3cc(OC)ccc3c2)C(=O)OC)cc1`, in series [1], the half-life is 156 min. In series [2], the pKa was determined as 4.2.
In the case of `COC(=O)N(COC(=O)[C@@H](C)c1ccc2cc(OC)ccc2c1)c1ccccc1`, in series [1], the half-life is 120 min. This compound also gave a pKa in series [2] of 4.2.
Consider `CCn1cc(C(=O)OCN(C)C(=O)OC)c(=O)c2ccc(C)nc21`, for which the half-life in series [1] amounted to 40 min. In series [2], this compound yielded a pKa of 6.
As usually defined, the solubility is the concentration that dissolves in the medium under given conditions. For `COC(=O)N(C)COC(=O)[C@@H](C)c1ccc2cc(OC)ccc2c1`, the half-life in series [1] amounted to 2 min. This compound also showed a pKa in series [2] of 4.2. The compound also came in with a solubility in series [3] of 5.16 mM (≈ 1710 µg/mL). Further, the “log K” value in series [4] is recorded as 1.67. In the series with Zone of skin, this compound displayed a Drug uptake of 4.21 µmol. Also, the Papp in series [5] was 5.28 ×10⁻⁶ cm/s.
For the compound `COC(=O)N(COC(=O)[C@@H](C)c1ccc2cc(OC)ccc2c1)c1ccc(OC)cc1`, the half-life in series [1] worked out at 49.8 min. This compound yielded a pKa in series [2] of 4.2.
Regarding `COC(=O)N(C)COC(=O)C(C)c1ccc(CC(C)C)cc1` (centres undefined), the half-life in series [1] worked out at 4.11 min. The compound also gave a pKa in series [2] of 4.41.

The values above are taken from ChEMBL document CHEMBL1139084, “N-Alkyl-N-alkyloxycarbonylaminomethyl (NANAOCAM) prodrugs of carboxylic acid containing drugs” (Bioorg Med Chem Lett, 2007).
